Patent US20070203194A1, “Ion channel modulators” (SCION PHARMACEUTICALS, INC., priority 2004, published 2007)

System: calcium channel (e.g., L-type, N-type, etc.) current
Assay: HEK assay (whole-cell patch clamp of calcium channel currents in transiently transfected HEK-293T/17 cells)
Format: cell-based
Details: whole-cell voltage clamp, holding potential −100 mV
Procedure: HEK-293T/17 cells are transiently transfected in a similar manner as described in FuGENE 6 Package Insert Version 7, April 2002, Roche Applied Science, Indianapolis, Ind. The cells are plated at 2.5×10^5 cells in 2 mL in a 6-well plate in incubator for one night and achieve a 30-40% confluence. In a small sterile tube, add sufficient serum-free medium as diluent for FuGENE Transfection Reagent (Roche Applied Science, Indianapolis, Ind.), to a total volume of 100 μL. Add 3 μL of FuGENE 6 Reagent directly into this medium. The mixture is tapped gently to mix. 2 μg of DNA solution (0.8-2.0 μg/μL) is added to the prediluted FuGENE 6 Reagent from above. The DNA/Fugene 6 mixture is gently pipetted to mix the contents and incubated for about 15 minutes at room temperature. The complex mixture is then added to the HEK-293T/17 cells, distributing it around the well, and swirled to ensure even dispersal. The cells are returned to the incubator for 24 hrs. The transfected cells are then replated at density 2.5×10^5 in a 35 mm dish with 5 glass coverslips and grow in low serum (1%) media for 24 hrs. Coverslips with isolated cells are then transferred into chamber and calcium channel (e.g., L-type, N-type, etc.) current or other currents for counter screening are recorded from the transiently transfected HEK-293T/17 cells.
The whole-cell voltage clamp configuration of the patch clamp technique is employed to evaluate voltage-dependent calcium currents essentially as described by Thompson and Wong (1991) J. Physiol., 439: 671-689. To record calcium channel (e.g., L-type, N-type, etc.) currents for evaluation of inhibitory potency of compounds (steady-state concentration-response analysis), five pulses of 20-30 ms voltage steps to about +10 mV (the peak of the current voltage relationship) are delivered at five Hz every 30 second from a holding potential at −100 mV. Compound evaluations were carried out essentially as described by Sah D W and Bean B P (1994) Mol Pharmacol. 45(1):84-92. Table 3 contains IC50's for representative compounds.

Row | IC50 | Structure (SMILES)
1 | 0.378 µM | COc1ccc(C(=O)CSc2nnc(CNc3ccc(F)cc3)n2-c2ccc(C)cc2)cc1 [Compound 5]
2 | 0.695 µM | COc1ccccc1-c1nnc(SCC(=O)Nc2ccccn2)n1-c1ccc(C)cc1 [Compound 27]
3 | 0.572 µM | COc1ccc(C(=O)CSc2nnc(-c3ccccc3OC)n2-c2ccc(C)cc2)cc1 [Compound 28]
